In patent US20230041743A1, “1,8-NAPHTHYRIDIN-2-ONE COMPOUNDS FOR THE TREATMENT OF AUTOIMMUNE DISEASE” (Hoffmann-La Roche Inc., priority 2019, published 2023) one finds IC50 data, which are given here for 18 compounds.

For this test, the target named is T1, human TLR8 (Homo sapiens, UniProt Q9NR97).
T1 construct: host or cells: HEK293 (HEK-Blue hTLR8)
T1 sequence (Q9NR97 27-1041): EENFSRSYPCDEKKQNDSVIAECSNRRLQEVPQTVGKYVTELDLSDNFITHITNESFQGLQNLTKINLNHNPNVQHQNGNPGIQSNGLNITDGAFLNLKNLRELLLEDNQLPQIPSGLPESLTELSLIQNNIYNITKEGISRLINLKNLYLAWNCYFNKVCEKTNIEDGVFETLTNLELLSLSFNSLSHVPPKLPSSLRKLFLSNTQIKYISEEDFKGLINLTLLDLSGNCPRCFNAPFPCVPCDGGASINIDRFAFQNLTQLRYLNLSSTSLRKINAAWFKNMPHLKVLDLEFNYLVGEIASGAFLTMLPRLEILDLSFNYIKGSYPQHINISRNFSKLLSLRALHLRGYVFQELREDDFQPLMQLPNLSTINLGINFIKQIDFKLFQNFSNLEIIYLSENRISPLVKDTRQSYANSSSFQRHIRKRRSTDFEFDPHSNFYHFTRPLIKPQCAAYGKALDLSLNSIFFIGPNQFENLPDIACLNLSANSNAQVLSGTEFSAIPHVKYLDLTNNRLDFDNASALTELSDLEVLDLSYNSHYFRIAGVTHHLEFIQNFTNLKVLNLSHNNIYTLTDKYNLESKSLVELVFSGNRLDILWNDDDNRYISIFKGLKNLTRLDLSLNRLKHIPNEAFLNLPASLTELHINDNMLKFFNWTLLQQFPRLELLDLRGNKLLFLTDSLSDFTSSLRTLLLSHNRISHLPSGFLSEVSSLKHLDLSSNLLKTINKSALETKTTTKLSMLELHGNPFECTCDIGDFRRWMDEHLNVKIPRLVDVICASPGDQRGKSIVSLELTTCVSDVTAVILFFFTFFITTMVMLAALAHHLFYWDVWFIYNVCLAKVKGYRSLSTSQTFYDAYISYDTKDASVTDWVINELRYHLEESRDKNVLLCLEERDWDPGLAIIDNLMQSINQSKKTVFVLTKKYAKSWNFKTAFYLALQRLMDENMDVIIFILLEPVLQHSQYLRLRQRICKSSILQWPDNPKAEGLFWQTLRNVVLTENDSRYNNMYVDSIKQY
The test can be described thus: HEK293-Blue-hTLR-8 cells assay (SEAP reporter, R848 stimulation). The class given is cell-based. The conditions noted are these: HEK293-Blue-hTLR8 cells, R848 ligand, 20 hrs incubation; read-out: HEK/hTLR8 IC50. The source says:
HEK293-Blue-hTLR-8 Cells Assay:
A stable HEK293-Blue-hTLR-8 cell line was purchased from InvivoGen (Cat. #: hkb-htlr8, San Diego, Calif., USA). These cells were originally designed for studying the stimulation of human TLR8 by monitoring the activation of NF-κB. A SEAP (secreted embryonic alkaline phosphatase) reporter gene was placed under the control of the IFN-β minimal promoter fused to five NF-κB and AP-1-binding sites. The SEAP was induced by activating NF-κB and AP-1 via stimulating HEK-Blue hTLR8 cells with TLR8 ligands. Therefore the reporter expression was declined by TLR8 antagonist under the stimulation of a ligand, such as R848, for incubation of 20 hrs. The cell culture supernatant SEAP reporter activity was determined using QUANTI-Blue™ kit (Cat. #: rep-qb1, Invivogen, San Diego, Ca, USA) at a wavelength of 640 nm, a detection medium that turns purple or blue in the presence of alkaline phosphatase.
HEK293-Blue-hTLR8 cells were incubated at a density of 250,000-450,000 cells/mL in a volume of 170 μL in a 96-well plate in Dulbecco's Modified Eagle's medium (DMEM) containing 4.5 g/L glucose, 50 U/mL penicillin, […], […], 2 mM L-glutamine, 10% (v/v) heat-inactivated fetal bovine serum with addition of 20 μL test compound in a serial dilution in the presence of final DMSO at 1% and 10 μL of 60 uM R848 in above DMEM, perform incubation under 37° C. in a CO2 incubator for 20 hrs. Then 20 μL of the supernatant from each well was incubated with 180 μL Quanti-blue substrate solution at 37° C. for 2 hrs and the absorbance was read at 620-655 nm using a spectrophotometer. The signaling pathway that TLR8 activation leads to downstream NF-κB activation has been widely accepted, and therefore similar reporter assay was modified for evaluating TLR8 antagonist.
Take `C[C@@H]1CN(c2cc(=O)n(C)c3ncccc23)C[C@@H]2c3ccc(N4CC(C)(N)C4)cc3CN12` [Example 1, 4-[(4R,10bS)-8-(3-amino-3-methyl-azetidin-1-yl)-4-methyl-3,4,6,10b-tetrahydro-1H-pyrazino[2,1-a]isoindol-2-yl]-1-methyl-1,8-naphthyridin-2-one]: the IC50 was 2.9 nM.

In the case of `C[C@@H]1CN(c2cc(=O)n(C)c3ncccc23)C[C@@H]2c3ccc(N4CC5(CN(C)C5)C4)cc3CN12` [Example 2, 4-[(4R,10bS)-4-methyl-8-(6-methyl-2,6-diazaspiro[3.3]heptan-2-yl)-3,4,6,10b-tetrahydro-1H-pyrazino[2,1-a]isoindol-2-yl]-1-methyl-1,8-naphthyridin-2-one], the IC50 was found to be 1.7 nM.

With `C[C@@H]1CN(c2cc(=O)n(C)c3ncccc23)C[C@@H]2c3ccc(N4CC5(CNCCO5)C4)cc3CN12` [Example 3, 4-[(4R,10bS)-4-methyl-8-(5-oxa-2,8-diazaspiro[3.5]nonan-2-yl)-3,4,6,10b-tetrahydro-1H-pyrazino[2,1-a]isoindol-2-yl]-1-methyl-1,8-naphthyridin-2-one], the IC50 was 2.6 nM.

Regarding `C[C@@H]1CN(c2cc(=O)n(C)c3ncccc23)C[C@@H]2c3ccc(N4CC[C@@](C)(N)C4)cc3CN12` [Example 4, 4-[(4R,10bS)-8-[(3R)-3-amino-3-methyl-pyrrolidin-1-yl]-4-methyl-3,4,6,10b-tetrahydro-1H-pyrazino[2,1-a]isoindol-2-yl]-1-methyl-1,8-naphthyridin-2-one], the IC50 is 2.9 nM.

Take `CO[C@@H]1CN(c2ccc3c(c2)CN2[C@H](C)CN(c4cc(=O)n(C)c5ncccc45)C[C@H]32)C[C@H]1N` [Example 5, 4-[(4R,10bS)-8-[(3R,4R)-3-amino-4-methoxy-pyrrolidin-1-yl]-4-methyl-3,4,6,10b-tetrahydro-1H-pyrazino[2,1-a]isoindol-2-yl]-1-methyl-1,8-naphthyridin-2-one]: the IC50 is 11.5 nM.

Regarding `C[C@@H]1CN(c2cc(=O)n(C)c3ncccc23)C[C@@H]2c3ccc(N4C[C@H]5NCCO[C@@H]5C4)cc3CN12` [Example 6, 4-[(4R,10bS)-8-[(4aR,7aR)-3,4,4a,5,7,7a-hexahydro-2H-pyrrolo[3,4-b][1,4]oxazin-6-yl]-4-methyl-3,4,6,10b-tetrahydro-1H-pyrazino[2,1-a]isoindol-2-yl]-1-methyl-1,8-naphthyridin-2-one], the IC50 worked out at 4.9 nM.

For `C[C@@H]1CN(c2cc(=O)n(C)c3ncccc23)C[C@@H]2c3ccc(N4C[C@@H](N)[C@@H](F)C4)cc3CN12` [Example 7, 4-[(4R,10bS)-8-[(3R,4S)-3-amino-4-fluoro-pyrrolidin-1-yl]-4-methyl-3,4,6,10b-tetrahydro-1H-pyrazino[2,1-a]isoindol-2-yl]-1-methyl-1,8-naphthyridin-2-one], the IC50 worked out at 5.9 nM.

For `CO[C@H]1CN(c2ccc3c(c2)CN2[C@H](C)CN(c4cc(=O)n(C)c5ncccc45)C[C@H]32)CC[C@@H]1N` [Example 8, 4-[(4R,10bS)-8-[(3S,4S)-4-amino-3-methoxy-1-piperidyl]-4-methyl-3,4,6,10b-tetrahydro-1H-pyrazino[2,1-a]isoindol-2-yl]-1-methyl-1,8-naphthyridin-2-one], the IC50 turned out to be 7.3 nM.

On to `CO[C@H]1CCN(c2ccc3c(c2)CN2[C@H](C)CN(c4cc(=O)n(C)c5ncccc45)C[C@H]32)C[C@@H]1N` [Example 9, 4-[(4R,10bS)-8-[(3S,4S)-3-amino-4-methoxy-1-piperidyl]-4-methyl-3,4,6,10b-tetrahydro-1H-pyrazino[2,1-a]isoindol-2-yl]-1-methyl-1,8-naphthyridin-2-one], for which the IC50 is 1.5 nM.

For the compound `COC[C@@H]1CNCCN1c1ccc2c(c1)CN1[C@H](C)CN(c3cc(=O)n(C)c4ncccc34)C[C@H]21` [Example 10, 4-[(4R,10bS)-8-[(2S)-2-(methoxymethyl)piperazin-1-yl]-4-methyl-3,4,6,10b-tetrahydro-1H-pyrazino[2,1-a]isoindol-2-yl]-1-methyl-1,8-naphthyridin-2-one], the IC50 stood at 4 nM.

Regarding `C[C@@H]1CN(c2cc(=O)n(C)c3ncccc23)C[C@@H]2c3ccc(N4CCOC5(CNC5)C4)cc3CN12` [Example 11, 4-[(4R,10bS)-4-methyl-8-(5-oxa-2,8-diazaspiro[3.5]nonan-8-yl)-3,4,6,10b-tetrahydro-1H-pyrazino[2,1-a]isoindol-2-yl]-1-methyl-1,8-naphthyridin-2-one], the IC50 was found to be 24.1 nM.

For `C[C@@H]1CN(c2cc(=O)n(C)c3ncccc23)C[C@@H]2c3ccc(N4CCNCC4)cc3CN12` [Example 12, 4-[(4R,10bS)-4-methyl-8-piperazin-1-yl-3,4,6,10b-tetrahydro-1H-pyrazino[2,1-a]isoindol-2-yl]-1-methyl-1,8-naphthyridin-2-one], the IC50 was determined as 0.8 nM.

As for `C[C@@H]1CN(c2cc(=O)n(C)c3ncccc23)C[C@@H]2c3ccc(N4CCN[C@@H](C)C4)cc3CN12` [Example 13, 4-[(4R,10bS)-4-methyl-8-[(3S)-3-methylpiperazin-1-yl]-3,4,6,10b-tetrahydro-1H-pyrazino[2,1-a]isoindol-2-yl]-1-methyl-1,8-naphthyridin-2-one], the IC50 came out at 1.3 nM.

Take `C[C@@H]1CN(c2ccc3c(c2)CN2[C@H](C)CN(c4cc(=O)n(C)c5ncccc45)C[C@H]32)CCN1` [Example 14, 4-[(4R,10bS)-4-methyl-8-[(3R)-3-methylpiperazin-1-yl]-3,4,6,10b-tetrahydro-1H-pyrazino[2,1-a]isoindol-2-yl]-1-methyl-1,8-naphthyridin-2-one]: the IC50 is 1 nM.

As for `C[C@@H]1CN(c2cc(=O)n(C)c3ncccc23)C[C@@H]2c3ccc(N4CCC[C@](C)(N)C4)cc3CN12` [Example 15, 4-[(4R,10bS)-8-[(3S)-3-amino-3-methyl-1-piperidyl]-4-methyl-3,4,6,10b-tetrahydro-1H-pyrazino[2,1-a]isoindol-2-yl]-1-methyl-1,8-naphthyridin-2-one], the IC50 was 7.2 nM.

As for `C[C@@H]1CN(c2cc(=O)n(C)c3ncccc23)C[C@@H]2c3ccc(N4CCC[C@@H](N)C4)cc3CN12` [Example 16, 4-[(4R,10bS)-8-[(3R)-3-amino-1-piperidyl]-4-methyl-3,4,6,10b-tetrahydro-1H-pyrazino[2,1-a]isoindol-2-yl]-1-methyl-1,8-naphthyridin-2-one], the IC50 came out at 3.9 nM.

Regarding `C[C@@H]1CNCCN1c1ccc2c(c1)CN1[C@H](C)CN(c3cc(=O)n(C)c4ncccc34)C[C@H]21` [Example 17, 4-[(4R,10bS)-4-methyl-8-[(2R)-2-methylpiperazin-1-yl]-3,4,6,10b-tetrahydro-1H-pyrazino[2,1-a]isoindol-2-yl]-1-methyl-1,8-naphthyridin-2-one], the IC50 is less than 0.3 nM.

Regarding `C[C@@H]1CN(c2cc(=O)n(C)c3ncccc23)C[C@@H]2c3ccc(N4CCC(C)(N)CC4)cc3CN12` [Example 18, 4-[(4R,10bS)-8-(4-amino-4-methyl-1-piperidyl)-4-methyl-3,4,6,10b-tetrahydro-1H-pyrazino[2,1-a]isoindol-2-yl]-1-methyl-1,8-naphthyridin-2-one], the IC50 came out at 2.5 nM.
